Results published in patent publication US11279733B2, “Peptide antibiotics” (priority 2017, dated 2022).
Converted amounts (≈) assume the structure as drawn. Where two headings read alike, the source gives them in different places. Positions of bridges follow the written chain, without caps; N, C: chain ends. Non-standard residues stand in square brackets, D forms with d. Residues, ends and D or L forms follow the SMILES beside them. *: point of attachment. Decanoyl(3R-OH) = CCCCCCC[C@@H](O)CC(=O)*; dDab = NCC[C@@H](N)C(=O)O; Dab = NCC[C@H](N)C(=O)O; Dap = NC[C@H](N)C(=O)O

What was measured:
A. baumannii ATCC 19606 = details: ATCC 19606
Experimental: (§1) Bacteria were either obtained from American Type Culture Collection (ATCC; Manassas, Va., USA) or independent academic clinical isolate collections, as listed in Table 18 below. Bacteria were cultured in Nutrient broth (NB; Bacto Laboratories, catalogue No. 234000) or Mueller Hinton broth (MHB; Bacto Laboratories, catalogue No. 211443) at 37° C. overnight with shaking (˜180 RPM). A sample of each culture was then diluted 50-fold in fresh MHB and incubated at 37° C. for 2-3 h with shaking (˜180 RPM). Compound stock solutions were prepared as 0.64 mg/mL or 2.56 mg/mL in water. The compounds, at twice the final desired concentration, were serially diluted 2-fold across the wells of 96-well plates (Polystyrene, Corning, catalogue No. 3370). Mid-log phase bacterial cultures (after 2-3 h incubation) were diluted to a final concentration of 1×10^6 colony forming units (CFU)/mL, and 50 μL was added to each well giving a final cell density of 5×10^5 and a compound concentration range of 32 μg/mL to 0.015 μg/mL (128-0.06 μg/mL against P. aeruginosa PA9704).

A. baumannii GN_093 PmxR = details: GN 093 PmxR
Experimental: as §1

E. coli ATCC 25922 = details: ATCC 25922
Experimental: as §1

K. pneumoniae ATCC 13883 = details: ATCC 13883
Experimental: as §1

[1] = tested on: K. pneumoniae ATCC 700603, MDR; details: ATCC 700603
Experimental: as §1

[2] = tested on: K. pneumoniae ATCC BAA-2146, NDM-1 pos; details: ATCC BAA-2146
Experimental: as §1

[3] = tested on: K. pneumoniae GN_102 PmxR; details: GN 102 PmxR
Experimental: as §1

[4] = tested on: K. pneumoniae GN_106, PmxR; details: GN 106, PmxR
Experimental: as §1

P. aeruginosa ATCC 27853 = details: ATCC 27853
Experimental: as §1

[5] = tested on: P. aeruginosa GN_043, PmxR
Experimental: as §1

[6] = tested on: P. aeruginosa GN_105, PmxR; details: GN 105, PmxR
Experimental: as §1

[7] = tested on: S. aureus ATCC 25923, MSSA; details: ATCC 25923
Experimental: as §1

SMILES | MIC A. baumannii ATCC 19606 (A. baumannii ATCC 19606) [µg/mL] | MIC, A. baumannii ATCC 19606 (A. baumannii ATCC 19606) [µg/mL] | MIC A. baumannii GN_093 PmxR (A. baumannii GN_093 PmxR) [µg/mL] | MIC, A. baumannii Cl Ptyela 10073 4512:2, PmxR (A. baumannii GN_093 PmxR) [µg/mL] | MIC E. coli ATCC 25922 (E. coli ATCC 25922) [µg/mL] | MIC, E. coli ATCC 25922 (E. coli ATCC 25922) [µg/mL] | MIC K. pneumoniae ATCC 13883 (K. pneumoniae ATCC 13883) [µg/mL] | MIC, K. pneumoniae ATCC 13883 (K. pneumoniae ATCC 13883) [µg/mL] | MIC K. pneumoniae ATCC 700603, MDR [1] [µg/mL] | MIC, K. pneumoniae ATCC 700603, MDR [1] [µg/mL] | MIC K. pneumoniae ATCC BAA-2146, NDM-1 pos [2] [µg/mL] | MIC, K. pneumoniae ATCC BAA-2146, NDM-1 pos [2] [µg/mL] | MIC K. pneumoniae GN_102 PmxR [3] [µg/mL] | MIC, K. pneumoniae Cl Koprana 10065 0661:1, PmxR [3] [µg/mL] | MIC K. pneumoniae GN_106, PmxR [4] [µg/mL] | MIC, K. pneumoniae Cl 138-16347-20362, PmxR [4] [µg/mL] | MIC P. aeruginosa ATCC 27853 (P. aeruginosa ATCC 27853) [µg/mL] | MIC, P. aeruginosa ATCC 27853 (P. aeruginosa ATCC 27853) [µg/mL] | MIC, P. aeruginosa FADDI-PA070, PmxR ([5]; Table 5, polymyxin-resistant) [µg/mL] | MIC P. aeruginosa GN_043, PmxR ([5]; polymyxin-resistant) [µg/mL] | other results
CCCCCCC[C@@H](O)CC(=O)N[C@H](CCN)C(=O)N[C@H]1CCNC(=O)[C@H](CC(C)C)NC(=O)[C@H](CCN)NC(=O)[C@H](CCN)NC(=O)[C@H](CC(C)C)NC(=O)[C@@H](Cc2ccccc2)NC(=O)[C@H](CCN)NC1=O [Octapeptin C4 (631), 3(R)OH-nC9CO-D-Dab-cyc[L-Dab-L-Dab-D-Phe-L-Leu-L-Dab-L-Dab-L-Leu], reference compound] ({Decanoyl(3R-OH)}-[dDab][Dab][Dab][dF]L[Dab][Dab]L; lactam 2-C) | 4 (≈ 3.83 µM) | 4 (≈ 3.83 µM) | 4 (≈ 3.83 µM) | 4 (≈ 3.83 µM) | 4 (≈ 3.83 µM) | 4 (≈ 3.83 µM) | 8 (≈ 7.66 µM) | 8 (≈ 7.66 µM) | 8 (≈ 7.66 µM) | 8 (≈ 7.66 µM) | 8 (≈ 7.66 µM) | 8 (≈ 7.66 µM) | 2 (≈ 1.92 µM) | 2 (≈ 1.92 µM) | 4 (≈ 3.83 µM) | 4 (≈ 3.83 µM) | 2 (≈ 1.92 µM) | 2 (≈ 1.92 µM) | 2 (≈ 1.92 µM) | 2 (≈ 1.92 µM) | MIC A. baumannii Cl Ptyela 10073 4512:2, PmxR (A. baumannii GN_093 PmxR): 4 µg/mL (≈ 3.83 µM); MIC K. pneumoniae Cl Koprana 10065 0661:1 PmxR [3]: 2 µg/mL (≈ 1.92 µM); MIC K. pneumoniae Cl 183-16357-20352, PmxR [4]: 4 µg/mL (≈ 3.83 µM); MIC P. aeruginosa GN_043, PmxR [5]: 2 µg/mL (≈ 1.92 µM); MIC P. aeruginosa GN_043, PmxR ([5]; P. aeruginosa GN_043, PmxR): 2 µg/mL (≈ 1.92 µM); MIC, P. aeruginosa FADDI-PA070, PmxR ([5]; strain name as in Table 11): 2 µg/mL (≈ 1.92 µM); MIC P. aeruginosa GN_105, PmxR [6]: 2 µg/mL (≈ 1.92 µM); MIC P. aeruginosa PA9704, PmxR [6]: 2 µg/mL (≈ 1.92 µM); MIC, P. aeruginosa PA9704, PmxR [6]: 2 µg/mL (≈ 1.92 µM); MIC S. aureus ATCC 25923, MSSA [7]: 16 µg/mL (≈ 15.3 µM); MIC, S. Aureus ATCC 25923, MSSA [7]: 16 µg/mL (≈ 15.3 µM)
CCCCCCC[C@@H](O)CC(=O)N[C@H](CCN)C(=O)N[C@H]1CCNC(=O)[C@H](CC(C)C)NC(=O)[C@H](CCN)NC(=O)[C@H](CCN)NC(=O)[C@H](CC(C)C)NC(=O)[C@@H](Cc2ccccc2)NC(=O)[C@H](CN)NC1=O [compound 993, 3(R)OH-nC9CO-D-Dab-cyc[L-Dab-L-Dap-D-Phe-L-Leu-L-Dab-L-Dab-L-Leu]] ({Decanoyl(3R-OH)}-[dDab][Dab][Dap][dF]L[Dab][Dab]L; lactam 2-C) | – | 8 (≈ 7.76 µM) | – | 16 (≈ 15.5 µM) | – | 2 (≈ 1.94 µM) | – | 4 (≈ 3.88 µM) | – | 4 (≈ 3.88 µM) | – | 8 (≈ 7.76 µM) | – | 2 (≈ 1.94 µM) | – | 2 (≈ 1.94 µM) | – | 2 (≈ 1.94 µM) | 2 (≈ 1.94 µM) | – | MIC, P. aeruginosa PA9704, PmxR [6]: 2 µg/mL (≈ 1.94 µM); MIC, S. Aureus ATCC 25923, MSSA [7]: 8 µg/mL (≈ 7.76 µM)
CCCCCCC[C@@H](O)CC(=O)N[C@H](CCN)C(=O)N[C@H]1CCNC(=O)[C@H](CC(C)C)NC(=O)[C@H](C)NC(=O)[C@H](CCN)NC(=O)[C@H](CC(C)C)NC(=O)[C@@H](Cc2ccccc2)NC(=O)[C@H](CCN)NC1=O [compound 4944, 3(R)OH-nC9CO-D-Dab-cyc[L-Dab-L-Dab-D-Phe-L-Leu-L-Dab-L-Ala-L-Leu]] ({Decanoyl(3R-OH)}-[dDab][Dab][Dab][dF]L[Dab]AL; lactam 2-C) | 32 (≈ 31.5 µM) | – | >32 | – | 16 (≈ 15.8 µM) | – | 16 (≈ 15.8 µM) | – | 16 (≈ 15.8 µM) | – | 8 (≈ 7.88 µM) | – | 8 (≈ 7.88 µM) | – | 32 (≈ 31.5 µM) | – | 8 (≈ 7.88 µM) | – | – | 4 (≈ 3.94 µM) | MIC P. aeruginosa GN_105, PmxR [6]: 16 µg/mL (≈ 15.8 µM); MIC S. aureus ATCC 25923, MSSA [7]: >32 µg/mL
